This note sets out measurements from patent US8530380B2 (priority 1997, dated 2013).

SMILES strings stand for the structures.

For this experiment, the system named is Phytophthora infestans. The class given is in vivo. The following applies: single active ingredient, 3.1 ppm in the spray liquor; tomato plants infected next day, evaluated after 6 days.

Regarding `COCC(=O)N(c1c(C)cccc1C)C(C)C(=O)OC` (centres unmarked) [Compound IV.3, metalaxyl], the “Efficacy in % of the untreated control” value was 0%.

For the molecule `O=C(Nc1ccccc1-c1ccc(F)cc1)c1cccnc1Cl` [Compound I.1], the “Efficacy in % of the untreated control” value amounted to 0%.
